From patent US9360486B2, “Allergen fragments” (Biomay AG, priority 2007, dated 2016)

Tested on: Amb a 1-specific T cell lines (TCL)
Test: T cell epitope mapping of Amb a 1.3: proliferation (3H-thymidine uptake) of TCL stimulated with synthetic peptides
Type: cell-based, human
Conditions: for No. positive patients SI > 3 / No. positive patients SI > 5 / % (positive patients SI > 3) / % (positive patients SI > 5): TCL from 48 ragweed pollen-allergic patients, peptide 5 μg/ml; for No. positive patients SI > 3 / No. positive patients SI > 5: 3H-thymidine uptake after 48 hrs; for No. positive patients SI > 3 / % (positive patients SI > 3): stimulation index > 3; for No. positive patients SI > 5 / % (positive patients SI > 5): stimulation index > 5; for T cell activating region recognized by % of patients: classes of prevalence referring to SI>5, 48 TCL
Summary of the method: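 Amb a 1-specific TCL from ragweed-allergic patients, raised with ragweed extract or rAmb a 1.3, stimulated 48 h with 121 overlapping 12-mer peptides plus one C-terminal 13-mer (9-residue overlap) at 5 μg/ml. Proliferation by 3H-thymidine uptake; SI against the mean cpm of the ten least stimulating peptides, epitope when SI ≥3.0.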

Sequence | reactivity with T cells isolated from allergic individuals | No. positive patients SI > 3 | No. positive patients SI > 5 | % (positive patients SI > 3) | % (positive patients SI > 5) | T cell activating region recognized by % of patients
PTILCQGNRFLA (Amb a 1 fragment) [Peptide 94] | reactivity with T cells | 11 | 9 | 22.9% | 18.8% | recognized by 18.8%
PVQSAGMIPAEP (Amb a 1 fragment) [Peptide 114] | reactivity with T cells | 8 | 5 | 16.7% | 10.4% | –
PVQSAGMIPAEPGEA (Amb a 1 fragment) [Peptide 114-115] | reactivity with T cells | – | – | – | – | recognized by 35.4%
QACEAYNIIDKC (Amb a 1 fragment) [Peptide 7] | – | 1 | 0 | 2.1% | 0.0% | –
QELVVNSDKTID (Amb a 1 fragment) [Peptide 36] | reactivity with T cells | 14 | 12 | 29.2% | 25.0% | –
QELVVNSDKTIDGRG (Amb a 1 fragment) [Peptide 36-37] | reactivity with T cells | – | – | – | – | recognized by 25.0%
QGFAKGTYGGKW (Amb a 1 fragment) [Peptide 17] | – | 2 | 1 | 4.2% | 2.1% | –
QIKKNVLARTGT (Amb a 1 fragment) [Peptide 99] | reactivity with T cells | 8 | 4 | 16.7% | 8.3% | –
QIWIDHCSLSKS (Amb a 1 fragment) [Peptide 61] | reactivity with T cells | 29 | 24 | 60.4% | 50.0% | –
QNRPLWIIFKND (Amb a 1 fragment) [Peptide 30] | reactivity with T cells | 11 | 9 | 22.9% | 18.8% | –
QNRPLWIIFKNDMVI (Amb a 1 fragment) [Peptide 30-31] | reactivity with T cells | – | – | – | – | recognized by 20.8%
RCRFGFFQVVNN (Amb a 1 fragment) [Peptide 85] | – | 4 | 1 | 8.3% | 2.1% | –
RMPRCRFGFFQV (Amb a 1 fragment) [Peptide 84] | – | 3 | 1 | 6.3% | 2.1% | –
RQASDGDTINVA (Amb a 1 fragment) [Peptide 56] | – | 1 | 1 | 2.1% | 2.1% | –
RSLQACEAYNII (Amb a 1 fragment) [Peptide 6] | – | 1 | 0 | 2.1% | 0.0% | –
RWGTYAIGGSSA (Amb a 1 fragment) [Peptide 90] | reactivity with T cells | 5 | 3 | 10.4% | 6.3% | –
SAEGVGEILPSV (Amb a 1 fragment) [Peptide 1] | – | 2 | 0 | 4.2% | 0.0% | –
SAGMIPAEPGEA (Amb a 1 fragment) [Peptide 115] | reactivity with T cells | 18 | 17 | 37.5% | 35.4% | –
SAGVLSCRPGAPC (Amb a 1 fragment) [Peptide 121] | reactivity with T cells | 6 | 2 | 12.5% | 4.2% | –
SDGDTINVAGSS (Amb a 1 fragment) [Peptide 57] | – | 0 | 0 | 0.0% | 0.0% | –
SDKTIDGRGVKV (Amb a 1 fragment) [Peptide 38] | reactivity with T cells | 13 | 11 | 27.1% | 22.9% | –
SDKTIDGRGVKVEIINGG (Amb a 1 fragment) [Peptide 38-40] | reactivity with T cells | – | – | – | – | recognized by 33.3%
SDPVLTPVQSAG (Amb a 1 fragment) [Peptide 112] | reactivity with T cells | 7 | 3 | 14.6% | 6.3% | –
SKAILLGADDTH (Amb a 1 fragment) [Peptide 73] | – | 4 | 2 | 8.3% | 4.2% | –
SKSFDGLVDVTL (Amb a 1 fragment) [Peptide 64] | – | 3 | 1 | 6.3% | 2.1% | –
SSAPTILCQGNR (Amb a 1 fragment) [Peptide 93] | reactivity with T cells | 6 | 4 | 12.5% | 8.3% | –
TDNVDQRMPRCR (Amb a 1 fragment) [Peptide 82] | – | 3 | 2 | 6.3% | 4.2% | –
TGTGAAESMAWN (Amb a 1 fragment) [Peptide 102] | reactivity with T cells | 9 | 6 | 18.8% | 12.5% | –
TIDGRGVKVEII (Amb a 1 fragment) [Peptide 39] | reactivity with T cells | 19 | 16 | 39.6% | 33.3% | –
TQQSKAILLGAD (Amb a 1 fragment) [Peptide 72] | – | 4 | 2 | 8.3% | 4.2% | –
